Measured values published in US9598440B2, “Inhibitors of IRAK4 activity” (MERCK SHARP & DOHME CORP., priority 2012, dated 2017).

Target: IRAK4 (Homo sapiens (Human), UniProt Q9NWZ3)
Experiment: Determination of IRAK4 kinase activity (IMAP fluorescence polarization, phosphorylation of fluorescent peptide substrate)
Type: biochemical
Conditions: 0.5 nM GST tagged IRAK4, 100 nM peptide substrate RP7030, 100 μM ATP, 30 minutes at 25° C.
Description: The kinase activity of IRAK4 is determined by its ability to catalyze the phosphorylation of a fluorescent polypeptide substrate. The extent of phosphorylation is measured using IMAP technology (Molecular Devices) where the phosphorylated fluorescent substrate binds to the large M(III)-based nanoparticles which reduces the rotational speed of the substrate and thus increases its fluorescent polarization (FP).
Procedure: A 20 μl reaction mixture contains 10 mM TriHCl, pH 7.2, 0.5 nM GST tagged IRAK4 (SignalChem), 100 nM fluorescent peptide substrate (RP7030, Molecular Devices), 100 μM ATP, 1 mM DTT, 1 mM MgCl2, and 0.01% Tween 20. The reaction is initiated by the addition of ATP. After incubation for 30 minutes at 25° C., 60 μl of Progressive IMAP Reagent (Molecular Devices) is added to stop the reaction. Change in RP7030's FP is determined by a FP reader (Analyst HT, LJL BioSystems). Analytical LCMS Conditions: • Condition A: Phenomenex Luna C18 (4.6×250 mm), 95:5 to 5:95 water:MeCN (0.05% TFA), over 10 min, hold 6 min. • Condition B: Agilent SBC (3.0×50 mm), solvent A: H20-0.1% TFA; • solvent B: ACN-0.1% TFA; GRADIENT TABLE: 0 min:10% B, 0.3 min: 10% B, 1.5 min: 95% B, 2.70 min: 95% B, 2.76 min: 10% B, stop time 3.60 min.

Chain of IRAK4 (Q9NWZ3 whole entry): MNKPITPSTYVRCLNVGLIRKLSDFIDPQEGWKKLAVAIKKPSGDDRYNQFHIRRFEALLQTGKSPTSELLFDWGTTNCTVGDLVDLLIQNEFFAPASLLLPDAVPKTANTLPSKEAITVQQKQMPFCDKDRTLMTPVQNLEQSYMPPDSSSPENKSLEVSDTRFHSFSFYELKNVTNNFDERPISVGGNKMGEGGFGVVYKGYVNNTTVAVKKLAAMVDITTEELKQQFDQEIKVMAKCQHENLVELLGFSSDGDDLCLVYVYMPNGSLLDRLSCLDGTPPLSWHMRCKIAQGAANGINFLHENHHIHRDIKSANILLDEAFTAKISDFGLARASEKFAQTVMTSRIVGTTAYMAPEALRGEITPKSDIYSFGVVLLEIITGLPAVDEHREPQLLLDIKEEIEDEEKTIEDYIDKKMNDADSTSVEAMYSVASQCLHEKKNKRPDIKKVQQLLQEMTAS

| Compound | IC50 [nM] |
| --- | --- |
| OC[C@H]1C[C@@H](Nc2nc(NC3COC3)ncc2-c2nc3ccccc3s2)[C@H](O)[C@@H]1O [Example 12, (1R,2S,3R,5R)-3-((5-(benzo[d]thiazol-2-yl)-2-(oxetan-3-ylamino)pyrimidin-4-yl)amino)-5-(hydroxymethyl)cyclopentane-1,2-diol] | 236 |
| OC[C@H]1C[C@@H](Nc2nc(Nc3cccc(F)c3)ncc2-c2nc3ccccc3s2)[C@H](O)[C@@H]1O [Example 13, (1R,2S,3R,5R)-3-((5-(benzo[d]thiazol-2-yl)-2-((3-fluorophenyl)amino)pyrimidin-4-yl)amino)-5-(hydroxymethyl)cyclopentane-1,2-diol] | 62 |
| NC(=O)Cc1cccc(Nc2ncc(-c3nc4ccccc4s3)c(N[C@@H]3C[C@H](CO)[C@@H](O)[C@H]3O)n2)c1 [Example 14, 2-(3-((5-(benzo[d]thiazol-2-yl)-4-(((1R,2S,3R,4R)-2,3-dihydroxy-4-(hydroxymethyl)cyclopentyl)amino)pyrimidin-2-yl)amino)phenyl)acetamide] | 5.4 |
| OC[C@H]1C[C@@H](Nc2nc(NCC3CC3)ncc2-c2nc3ccccc3s2)[C@H](O)[C@@H]1O [Example 15, (1R,2S,3R,5R)-3-((5-(benzo[d]thiazol-2-yl)-2-((cyclopropylmethyl)amino)pyrimidin-4-yl)amino)-5-(hydroxymethyl)cyclopentane-1,2-diol] | 333 |
| COCCCNc1ncc(-c2nc3ccccc3s2)c(N[C@@H]2C[C@H](CO)[C@@H](O)[C@H]2O)n1 [Example 16, (1R,2S,3R,5R)-3-((5-(benzo[d]thiazol-2-yl)-2-((3-methoxypropyl)amino)pyrimidin-4-yl)amino)-5-(hydroxymethyl)cyclopentane-1,2-diol] | 228 |
| OC[C@H]1C[C@@H](Nc2nc(NC3CCOCC3)ncc2-c2nc3ccccc3s2)[C@H](O)[C@@H]1O [Example 17, (1R,2S,3R,5R)-3-((5-(benzo[d]thiazol-2-yl)-2-((tetrahydro-2H-pyran-4-yl)amino)pyrimidin-4-yl)amino)-5-(hydroxymethyl)cyclopentane-1,2-diol] | 1080 |
| OC[C@H]1C[C@@H](Nc2nc(NC3CCCCC3)ncc2-c2nc3ccccc3s2)[C@H](O)[C@@H]1O [Example 18, (1R,2S,3R,5R)-3-((5-(benzo[d]thiazol-2-yl)-2-(cyclohexylamino)pyrimidin-4-yl)amino)-5-(hydroxymethyl)cyclopentane-1,2-diol] | 3010 |
| Nc1ncc(-c2ccc3ccccc3n2)c(N[C@@H]2C[C@H](CO)[C@@H](O)[C@H]2O)n1 [Example 19, (1R,2S,3R,5R)-3-((2-amino-5-(quinolin-2-yl)pyrimidin-4-yl)amino)-5-(hydroxymethyl)cyclopentane-1,2-diol] | 104 |
| Nc1ncc(-c2nc3cnccc3s2)c(N[C@@H]2C[C@H](CO)[C@@H](O)[C@H]2O)n1 [Example 20, (1R,2S,3R,5R)-3-((2-amino-5-(thiazolo[4,5-c]pyridin-2-yl)pyrimidin-4-yl)amino)-5-(hydroxymethyl)cyclopentane-1,2-diol] | 24 |
| Nc1ncc(-c2nc3ccncc3s2)c(N[C@@H]2C[C@H](CO)[C@@H](O)[C@H]2O)n1 [Example 21, (1R,2S,3R,5R)-3-((2-amino-5-(thiazolo[5,4-c]pyridin-2-yl)pyrimidin-4-yl)amino)-5-(hydroxymethyl)cyclopentane-1,2-diol] | 16 |
| OC[C@H]1C[C@@H](Nc2nc(Nc3ccccc3O)ncc2-c2nc3ccccc3s2)[C@H](O)[C@@H]1O [Example 22, (1R,2S,3R,5R)-3-((5-(benzo[d]thiazol-2-yl)-2-((2-hydroxyphenyl)amino)pyrimidin-4-yl)amino)-5-(hydroxymethyl)cyclopentane-1,2-diol] | 1240 |
| OC[C@H]1C[C@@H](Nc2nc(Nc3ccc4[nH]ccc4c3)ncc2-c2nc3ccccc3s2)[C@H](O)[C@@H]1O [Example 23, (1R,2S,3R,5R)-3-((2-((1H-indol-5-yl)amino)-5-(benzo[d]thiazol-2-yl)pyrimidin-4-yl)amino)-5-(hydroxymethyl)cyclopentane-1,2-diol] | 20 |
| OC[C@H]1C[C@@H](Nc2nc(Nc3ccc4cc[nH]c4c3)ncc2-c2nc3ccccc3s2)[C@H](O)[C@@H]1O [Example 24, (1R,2S,3R,5R)-3-((2-((1H-indol-6-yl)amino)-5-(benzo[d]thiazol-2-yl)pyrimidin-4-yl)amino)-5-(hydroxymethyl)cyclopentane-1,2-diol] | 22 |
| OC[C@H]1C[C@@H](Nc2nc(Nc3ccncn3)ncc2-c2nc3ccccc3s2)[C@H](O)[C@@H]1O [Example 25, (1R,2S,3R,5R)-3-((5-(benzo[d]thiazol-2-yl)-2-(pyrimidin-4-ylamino)pyrimidin-4-yl)amino)-5-(hydroxymethyl)cyclopentane-1,2-diol] | 34 |
| OC[C@H]1C[C@@H](Nc2nc(Nc3cncnc3)ncc2-c2nc3ccccc3s2)[C@H](O)[C@@H]1O [Example 26, (1R,2S,3R,5R)-3-((5-(benzo[d]thiazol-2-yl)-2-(pyrimidin-5-ylamino)pyrimidin-4-yl)amino)-5-(hydroxymethyl)cyclopentane-1,2-diol] | 4.8 |
| NC(=O)c1cccc(Nc2ncc(-c3nc4ccccc4s3)c(N[C@@H]3C[C@H](CO)[C@@H](O)[C@H]3O)n2)c1 [Example 27, 3-((5-(benzo[d]thiazol-2-yl)-4-(((1R,2S,3R,4R)-2,3-dihydroxy-4-(hydroxymethyl)cyclopentyl)amino)pyrimidin-2-yl)amino)benzamide] | 5.3 |
| NC(=O)Cc1ccc(Nc2ncc(-c3nc4ccccc4s3)c(N[C@@H]3C[C@H](CO)[C@@H](O)[C@H]3O)n2)cc1 [Example 29, 2-(4-((5-(benzo[d]thiazol-2-yl)-4-(((1R,2S,3R,4R)-2,3-dihydroxy-4-(hydroxymethyl)cyclopentyl)amino)pyrimidin-2-yl)amino)phenyl)acetamide] | 10 |
| OC[C@H]1C[C@@H](Nc2nc(Nc3ccncc3F)ncc2-c2nc3ccccc3s2)[C@H](O)[C@@H]1O [Example 30, (1R,2S,3R,5R)-3-((5-(benzo[d]thiazol-2-yl)-2-((3-fluoropyridin-4-yl)amino)pyrimidin-4-yl)amino)-5-(hydroxymethyl)cyclopentane-1,2-diol] | 44 |
| Cc1cc(Nc2ncc(-c3nc4ccccc4s3)c(N[C@@H]3C[C@H](CO)[C@@H](O)[C@H]3O)n2)ccn1 [Example 31, (1R,2S,3R,5R)-3-((5-(benzo[d]thiazol-2-yl)-2-((2-methylpyridin-4-yl)amino)pyrimidin-4-yl)amino)-5-(hydroxymethyl)cyclopentane-1,2-diol] | 1.2 |
| OC[C@H]1C[C@@H](Nc2nc(NC3CCCC3)ncc2-c2nc3ccccc3s2)[C@H](O)[C@@H]1O [Example 33, (1R,2S,3R,5R)-3-((5-(benzo[d]thiazol-2-yl)-2-(cyclopentylamino)pyrimidin-4-yl)amino)-5-(hydroxymethyl)cyclopentane-1,2-diol] | 496 |
| CN(C)c1ccc(Nc2ncc(-c3nc4ccccc4s3)c(N[C@@H]3C[C@H](CO)[C@@H](O)[C@H]3O)n2)cc1 [Example 34, (1R,2S,3R,5R)-3-((5-(benzo[d]thiazol-2-yl)-2-((4-(dimethylamino)phenyl)amino)pyrimidin-4-yl)amino)-5-(hydroxymethyl)cyclopentane-1,2-diol] | 12 |
| Cc1cc(C)cc(Nc2ncc(-c3nc4ccccc4s3)c(N[C@@H]3C[C@H](CO)[C@@H](O)[C@H]3O)n2)c1 [Example 35, (1R,2S,3R,5R)-3-((5-(benzo[d]thiazol-2-yl)-2-((3,5-dimethylphenyl)amino)pyrimidin-4-yl)amino)-5-(hydroxymethyl)cyclopentane-1,2-diol] | 10 |
| COc1cccc([C@@H](C)Nc2ncc(-c3nc4ccccc4s3)c(N[C@@H]3C[C@H](CO)[C@@H](O)[C@H]3O)n2)c1 [Example 36, (1R,2S,3R,5R)-3-((5-(benzo[d]thiazol-2-yl)-2-(((R)-1-(3-methoxyphenyl)ethyl)amino)pyrimidin-4-yl)amino)-5-(hydroxymethyl)cyclopentane-1,2-diol] | 470 |
| OC[C@H]1C[C@@H](Nc2nc(Nc3cccnc3)ncc2-c2nc3ccccc3s2)[C@H](O)[C@@H]1O [Example 37, (1R,2S,3R,5R)-3-((5-(benzo[d]thiazol-2-yl)-2-(pyridin-3-ylamino)pyrimidin-4-yl)amino)-5-(hydroxymethyl)cyclopentane-1,2-diol] | 10 |
| Nc1ncc(-c2ccccn2)c(N[C@@H]2C[C@H](CO)[C@@H](O)[C@H]2O)n1 [Example 38, (1R,2S,3R,5R)-3-((2-amino-5-(pyridin-2-yl)pyrimidin-4-yl)amino)-5-(hydroxymethyl)cyclopentane-1,2-diol] | 623 |
| CN(C)c1cccc(Nc2ncc(-c3nc4ccccc4s3)c(N[C@@H]3C[C@H](CO)[C@@H](O)[C@H]3O)n2)c1 [Example 39, (1R,2S,3R,5R)-3-((5-(benzo[d]thiazol-2-yl)-2-((3-(dimethylamino)phenyl)amino)pyrimidin-4-yl)amino)-5-(hydroxymethyl)cyclopentane-1,2-diol] | 8.9 |
